Assay results as given in patent publication US8759579B2, “Cyclobutyl sulfones as notch sparing gamma secretase inhibitors” (Merck Sharp & Dohme Corp., priority 2008, dated 2014).
Like-named read-outs stand apart in the source and are kept apart here.

Tests used:
Assay type in all cases: cell-based
[1] = molecular target: T1, pregnane X receptor (PXR) (Homo sapiens, UniProt O75469); experiment: PXR assay (CYP3A4-SEAP transactivation assay, PCSTA); conditions: for EC50: HEP G2 cells
T1 construct: expressed in transfected cells; host or cells: HEP G2
T1 sequence (O75469 1-434): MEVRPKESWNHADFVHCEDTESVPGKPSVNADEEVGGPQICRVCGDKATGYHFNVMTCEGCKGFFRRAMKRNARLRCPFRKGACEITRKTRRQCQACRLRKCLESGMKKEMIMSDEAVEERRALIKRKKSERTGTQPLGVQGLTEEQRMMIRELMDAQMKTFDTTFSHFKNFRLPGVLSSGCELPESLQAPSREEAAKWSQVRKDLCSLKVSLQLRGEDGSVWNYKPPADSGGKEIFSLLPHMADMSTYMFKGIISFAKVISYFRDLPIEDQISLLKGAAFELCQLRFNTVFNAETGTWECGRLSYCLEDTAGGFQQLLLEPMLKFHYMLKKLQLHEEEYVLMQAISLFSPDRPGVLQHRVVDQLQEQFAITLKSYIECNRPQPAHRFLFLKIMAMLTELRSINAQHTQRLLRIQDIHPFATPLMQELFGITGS
T1 sequence (P19793 1-462 partner): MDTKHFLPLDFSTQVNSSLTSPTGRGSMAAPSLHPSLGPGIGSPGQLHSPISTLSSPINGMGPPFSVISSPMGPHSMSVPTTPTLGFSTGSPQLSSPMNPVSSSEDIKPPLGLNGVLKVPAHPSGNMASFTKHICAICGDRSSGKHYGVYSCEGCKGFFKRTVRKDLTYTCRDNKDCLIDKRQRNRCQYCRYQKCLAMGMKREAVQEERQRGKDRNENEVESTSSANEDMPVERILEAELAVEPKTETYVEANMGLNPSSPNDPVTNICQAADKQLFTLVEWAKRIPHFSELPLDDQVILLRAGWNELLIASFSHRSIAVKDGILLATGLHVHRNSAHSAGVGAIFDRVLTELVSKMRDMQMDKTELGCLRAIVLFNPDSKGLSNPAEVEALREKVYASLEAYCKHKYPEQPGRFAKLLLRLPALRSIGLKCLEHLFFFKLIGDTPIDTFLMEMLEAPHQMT
Text: The CYP3A4-SEAP transactivation assay (PCSTA) effectively and rapidly evaluates compounds for their potential to induce cytochrome P450 CYP3A (human CYP3A4 or rat CYP3A1). The reporter construct contains regulatory regions from the CYP3A4 gene positioned just upstream of a secreted alkaline phosphatase (SEAP) gene. The human PXR nuclear receptor has been modified at the 5′-end so that methionine is the initiating amino acid replacing leucine found in the wild-type sequence. HEP G2 cells are transfected with the PXR plasmid (human or rat) and the reporter plasmid. Read-out for the induction of CYP3A4 consists of a SEAP calorimetric assay with para-nitro-phenyl phosphate (pNPP) as the substrate. Five point dose-response curves in duplicate are then generated with each point corresponding to the rate of conversion of pNPP to pNP by SEAP. For the human PCSTA, rifampicin is used as the positive control and 100% induction is based upon the maximum induction produced by rifampicin at 10 μM.

[2] = tested on: gamma secretase-dependent cleavage of the Notch protein (NotchΔE) in HeLa cells; experiment: Notch processing split-luciferase assay (Notch intracellular domain release); conditions: average of at least >4 replicates, read-out: Notch IC50 AVG
Text: Notch Processing: (Assay Quantitates Notch Intracellular Domain Release in Cell Lines):
A “split-luciferase” assay is used to measure inhibition of gamma secretase-dependent cleavage of the Notch protein. In this assay, HeLa cells were made to express a Notch protein lacking its extracellular domain (NotchΔE) fused to an N-terminal fragment of luciferase. The same cells also expressed a C-terminal fragment of luciferase fused to the immunoglobulin J kappa recombination signal sequence binding protein (RBP). Upon NotchΔE cleavage by gamma secretase, a Notch intracellular domain (NICD)-N terminal luciferase protein is generated which translocates to the nucleus and binds the RBP-C terminal luciferase fusion, bringing two independently nonfunctional halves of luciferase together to form a functional luciferase enzyme. The activity of luciferase in these cells is directly proportional to the amount of gamma secretase-cleaved Notch. Luciferase activity is determined by the standard techniques of luciferin addition to lysed cells and measurement of total luminescence.

[3] = tested on: Aβ40 peptides generated from SH-SY5Y cells expressing amyloid β protein (SP4CT cells); experiment: APP processing AlphaLisa assay, secreted Aβ40; conditions: average of at least >4 replicates, read-out: AB40 IC50 AVG
Description: (§1) APP Processing (Assay Quantitates Secreted Aβ Analytes from Cell Lines):
(§2) The effect of compounds on the abundance of Aβ40 and Aβ42 peptides generated from SH-SY5Y cells expressing amyloid β protein (SP4CT cells) was determined by an AlphaLisa™ assay. Analogous to an ELISA assay, generation of signal in this AlphaLisa™ assay requires “donor” and “acceptor” beads to be brought in close proximity by specific antibody recognition of either Aβ40 or Aβ42 peptides. The assay was accomplished by removing media from compound-treated SP4CT cells to two different microplates, followed by the addition of donor beads conjugated with streptavidin binding a biotinylated anti-amyloid β monoclonal antibody (clone 4G8). Acceptor beads directly conjugated with anti-Aβ40 monoclonal antibody (G210) were added to one microplate and anti-Aβ42 monoclonal antibody (12F4) acceptor beads were added to the other. Abundance of Aβ40 and Aβ42 was directly proportional to the luminescent signal generated following excitation of donor beads by laser light.

[4] = tested on: Aβ42 peptides generated from SH-SY5Y cells expressing amyloid β protein (SP4CT cells); experiment: APP processing AlphaLisa assay, secreted Aβ42; conditions: average of at least >4 replicates, read-out: AB42 IC50 AVG
Description: as §1, §2

| SMILES | EC50 [1] | IC50 ([2]; Homo sapiens, HeLa) | IC50 ([3]; Homo sapiens, SH-SY5Y) | IC50 ([4]; Homo sapiens, SH-SY5Y) | PXR % Activation @ 10 uM [1] | IC50 [2] | IC50 [3] | IC50 [4] |
| --- | --- | --- | --- | --- | --- | --- | --- | --- |
| O=S(=O)(N[C@H]1C[C@](c2cc(F)ccc2F)(S(=O)(=O)c2ccc(Cl)cc2)C1)C(F)(F)F [Example 1, N-[trans-3-[(4-chlorophenyl)sulfonyl]-3-(2,5-difluorophenyl)cyclobutyl]-1,1,1-trifluoromethanesulfonamide] | 1220 nM | 50000 nM | 151 nM | 117 nM |  |  |  |  |
| N#Cc1ccc(F)cc1[C@]1(S(=O)(=O)c2ccc(Cl)cc2)C[C@@H](NS(=O)(=O)C(F)(F)F)C1 [Example 3, N-[cis-3-[(4-chlorophenyl)sulfonyl]-3-(2-cyano-5-fluorophenyl)cyclobutyl]-1,1,1-trifluoromethanesulfonamide] | 714 nM | 3210 nM | 70.1 nM | 66.1 nM | 92.3% |  |  |  |
| O=S(=O)(N[C@H]1C[C@@](c2cc(Cl)ccc2Cl)(S(=O)(=O)c2ccc(Cl)cc2)C1)C(F)(F)F [Example 4, N-[cis-3-[(4-chlorophenyl)sulfonyl]-3-(2,5-dichlorophenyl)cyclobutyl]-1,1,1-trifluoromethanesulfonamide] | 1960 nM | 1940 nM | 70.8 nM | 78.2 nM | 70.7% |  |  |  |
| O=S(=O)(NC1CC(c2cc(F)ccc2F)(S(=O)(=O)c2ccc(C(F)(F)F)cc2)C1)C(F)(F)F (stereo not drawn) [Example 5, N-(cis-3-(2,5-difluorophenyl)-3-{[4-(trifluoromethyl)phenyl]sulfonyl}cyclobutyl)-1,1,1-trifluoromethanesulfonamide] | 5200 nM | 3810 nM | 100 nM | 90.2 nM | 64.4% |  |  |  |
| O=S(=O)(NC1CC(c2cc(Cl)ccc2F)(S(=O)(=O)c2ccc(Cl)cc2)C1)C(F)(F)F (stereo not drawn) [Example 6, N-{cis-3-(5-chloro-2-fluorophenyl)-3-[(4-chlorophenyl)sulfonyl]cyclobutyl}-1,1,1-trifluoromethanesulfonamide] | 1990 nM | 5640 nM | 130 nM | 106 nM | 79.2% |  |  |  |
| O=S(=O)(NC1CC(c2cc(F)ccc2F)(S(=O)(=O)c2ccc(F)cc2)C1)C(F)(F)F (stereo not drawn) [Example 7, N-{cis-3-(2,5-difluorophenyl)-3-[(4-fluorophenyl)sulfonyl]cyclobutyl}-1,1,1-trifluoromethanesulfonamide] | 766 nM | 3080 nM | 68.4 nM | 57.6 nM | 113.2% |  |  |  |
| O=S(=O)(NC1CC(c2cc(F)ccc2F)(S(=O)(=O)c2ccc(F)c(F)c2)C1)C(F)(F)F (stereo not drawn) [Example 8, N-{cis-3-(2,5-difluorophenyl)-3-[(3,4-difluorophenyl)sulfonyl]cyclobutyl}-1,1,1-trifluoromethanesulfonamide] | 1260 nM | 3140 nM | 79.2 nM | 62.8 nM | 82.3% |  |  |  |
| N#Cc1ccc(S(=O)(=O)C2(c3cc(F)ccc3F)CC(NS(=O)(=O)C(F)(F)F)C2)cc1 (stereo not drawn) [Example 9, N-[cis-3-[(4-cyanophenyl)sulfonyl]-3-(2,5-difluorophenyl)cyclobutyl]-1,1,1-trifluoromethanesulfonamide] | 8360 nM | 8900 nM | 260 nM | 231 nM | 54.9% |  |  |  |
| O=C(O)CCCN([C@H]1C[C@@](c2cc(F)ccc2F)(S(=O)(=O)c2ccc(Cl)cc2)C1)S(=O)(=O)C(F)(F)F [Example 10, 4-{[cis-3-[(4-chlorophenyl)sulfonyl]-3-(2,5-difluorophenyl)cyclobutyl][(trifluoromethyl)sulfonyl]amino}butanoic acid] | 1240 nM | 8320 nM | 35.2 nM | 30.7 nM | 76.7% |  |  |  |
| O=S(=O)(N(CCOC1CCCCO1)[C@H]1C[C@@](c2cc(F)ccc2F)(S(=O)(=O)c2ccc(Cl)cc2)C1)C(F)(F)F (stereo partly drawn) [Example 11, N-[cis-3-[(4-chlorophenyl)sulfonyl]-3-(2,5-difluorophenyl)cyclobutyl]-1,1,1-trifluoro-N-[2-(tetrahydro-2-pyran-2-yloxy)ethyl]methanesulfonamide] | 826 nM | 2540 nM | 43.4 nM | 36.9 nM | 86.5% |  |  |  |
| COC(=O)CN([C@H]1C[C@@](c2cc(F)ccc2F)(S(=O)(=O)c2ccc(Cl)cc2)C1)S(=O)(=O)C(F)(F)F [Example 12, Methyl {[cis-3-[(4-chlorophenyl)sulfonyl]-3-(2,5-difluorophenyl)cyclobutyl][(trifluoromethyl)sulfonyl]amino}acetate] | 1600 nM | 13200 nM | 97.7 nM | 117 nM |  |  |  |  |
| CN(C1CC(c2cc(F)ccc2F)(S(=O)(=O)c2ccc(Cl)cc2)C1)S(=O)(=O)C(F)(F)F (stereo not shown) [Example 13, N-[3-[(4-chlorophenyl)sulfonyl]-3-(2,5-difluorophenyl)cyclobutyl]-1,1,1-trifluoro-N-methylmethanesulfonamide] | 1260 nM |  |  |  |  | 4810 nM | 18.4 nM | 18.9 nM |
| CN(C1CC(c2cc(F)ccc2F)(S(=O)(=O)c2ccc(Cl)cc2)C1)S(=O)(=O)C(F)(F)F (stereo not shown) [Example 14, N-[3-[(4-chlorophenyl)sulfonyl]-3-(2,5-difluorophenyl)cyclobutyl]-1,1,1-trifluoro-N-methylmethanesulfonamide] | 829 nM |  |  |  |  | 9860 nM | 89.9 nM | 97.1 nM |
| COC(=O)CCCN([C@H]1C[C@@](c2cc(F)ccc2F)(S(=O)(=O)c2ccc(Cl)cc2)C1)S(=O)(=O)C(F)(F)F [Example 15, methyl 4-{[cis-3-[(4-chlorophcnyl)sulfonyl]-3-(2,5-difluorophenyl)cyclobutyl][(trifluoromethyl)sulfonyl]amino}butanoate] | 1210 nM | 2830 nM | 51.8 nM | 51.8 nM |  |  |  |  |
| O=C(O)CN([C@H]1C[C@@](c2cc(F)ccc2F)(S(=O)(=O)c2ccc(Cl)cc2)C1)S(=O)(=O)C(F)(F)F [Example 16, N-[cis-3-[(4-chlorophenyl)sulfonyl]-3-(2,5-difluorophenyl)cyclobutyl]-N-[(trifluoromethyl)sulfonyl]glycine] | 1010 nM | 32000 nM | 96.7 nM | 67.9 nM | 100% |  |  |  |
